Key:
[1] = biological target: T1, DRH-1 in the antiviral complex (AVC; DCR-1•DRH-1•RDE-4) (Caenorhabditis elegans, UniProt G5EDI8); test: cryo-EM structure, […] Å; details: ATP-binding pockets of both DRH-1 helicases (DRH-1 and DRH-1*); sample incubated with 5 mM ATP and 3'ovr 106-dsRNA, pH 7.5, 20 °C
T1 construct: three proteins co-expressed in Sf9 cells (baculovirus), StrepTrap and Superose 6 purified; two stacked DRH-1 helicases (DRH-1 and DRH-1*, the latter only helicase and CTD resolved); with Endoribonuclease dcr-1
T1 sequence (G5EDI8 1-1037): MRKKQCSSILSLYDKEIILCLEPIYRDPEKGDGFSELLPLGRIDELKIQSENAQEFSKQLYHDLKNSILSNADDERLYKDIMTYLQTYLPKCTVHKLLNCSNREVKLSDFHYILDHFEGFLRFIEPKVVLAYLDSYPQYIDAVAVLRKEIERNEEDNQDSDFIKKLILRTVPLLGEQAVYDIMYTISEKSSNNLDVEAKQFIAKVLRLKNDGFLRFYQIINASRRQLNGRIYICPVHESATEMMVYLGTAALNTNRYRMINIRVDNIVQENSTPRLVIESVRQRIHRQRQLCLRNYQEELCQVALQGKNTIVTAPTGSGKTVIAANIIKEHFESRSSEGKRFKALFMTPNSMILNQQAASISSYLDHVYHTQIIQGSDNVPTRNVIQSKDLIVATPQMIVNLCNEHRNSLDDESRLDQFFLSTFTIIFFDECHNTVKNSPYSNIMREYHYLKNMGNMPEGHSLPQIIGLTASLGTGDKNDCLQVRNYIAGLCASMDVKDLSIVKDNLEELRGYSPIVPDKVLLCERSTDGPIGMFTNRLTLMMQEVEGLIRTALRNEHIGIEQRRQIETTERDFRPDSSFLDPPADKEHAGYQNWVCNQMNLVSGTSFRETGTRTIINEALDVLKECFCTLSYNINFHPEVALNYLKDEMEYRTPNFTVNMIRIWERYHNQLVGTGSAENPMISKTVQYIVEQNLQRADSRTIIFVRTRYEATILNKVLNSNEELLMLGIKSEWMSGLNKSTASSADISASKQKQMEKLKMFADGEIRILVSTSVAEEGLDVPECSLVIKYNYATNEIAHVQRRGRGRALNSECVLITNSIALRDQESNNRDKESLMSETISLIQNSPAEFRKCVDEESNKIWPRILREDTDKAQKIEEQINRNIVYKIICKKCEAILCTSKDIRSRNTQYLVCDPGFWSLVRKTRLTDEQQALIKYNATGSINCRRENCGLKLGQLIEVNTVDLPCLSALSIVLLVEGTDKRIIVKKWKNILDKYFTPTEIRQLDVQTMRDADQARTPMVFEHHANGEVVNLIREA
T1 sequence (P34529 whole entry partner): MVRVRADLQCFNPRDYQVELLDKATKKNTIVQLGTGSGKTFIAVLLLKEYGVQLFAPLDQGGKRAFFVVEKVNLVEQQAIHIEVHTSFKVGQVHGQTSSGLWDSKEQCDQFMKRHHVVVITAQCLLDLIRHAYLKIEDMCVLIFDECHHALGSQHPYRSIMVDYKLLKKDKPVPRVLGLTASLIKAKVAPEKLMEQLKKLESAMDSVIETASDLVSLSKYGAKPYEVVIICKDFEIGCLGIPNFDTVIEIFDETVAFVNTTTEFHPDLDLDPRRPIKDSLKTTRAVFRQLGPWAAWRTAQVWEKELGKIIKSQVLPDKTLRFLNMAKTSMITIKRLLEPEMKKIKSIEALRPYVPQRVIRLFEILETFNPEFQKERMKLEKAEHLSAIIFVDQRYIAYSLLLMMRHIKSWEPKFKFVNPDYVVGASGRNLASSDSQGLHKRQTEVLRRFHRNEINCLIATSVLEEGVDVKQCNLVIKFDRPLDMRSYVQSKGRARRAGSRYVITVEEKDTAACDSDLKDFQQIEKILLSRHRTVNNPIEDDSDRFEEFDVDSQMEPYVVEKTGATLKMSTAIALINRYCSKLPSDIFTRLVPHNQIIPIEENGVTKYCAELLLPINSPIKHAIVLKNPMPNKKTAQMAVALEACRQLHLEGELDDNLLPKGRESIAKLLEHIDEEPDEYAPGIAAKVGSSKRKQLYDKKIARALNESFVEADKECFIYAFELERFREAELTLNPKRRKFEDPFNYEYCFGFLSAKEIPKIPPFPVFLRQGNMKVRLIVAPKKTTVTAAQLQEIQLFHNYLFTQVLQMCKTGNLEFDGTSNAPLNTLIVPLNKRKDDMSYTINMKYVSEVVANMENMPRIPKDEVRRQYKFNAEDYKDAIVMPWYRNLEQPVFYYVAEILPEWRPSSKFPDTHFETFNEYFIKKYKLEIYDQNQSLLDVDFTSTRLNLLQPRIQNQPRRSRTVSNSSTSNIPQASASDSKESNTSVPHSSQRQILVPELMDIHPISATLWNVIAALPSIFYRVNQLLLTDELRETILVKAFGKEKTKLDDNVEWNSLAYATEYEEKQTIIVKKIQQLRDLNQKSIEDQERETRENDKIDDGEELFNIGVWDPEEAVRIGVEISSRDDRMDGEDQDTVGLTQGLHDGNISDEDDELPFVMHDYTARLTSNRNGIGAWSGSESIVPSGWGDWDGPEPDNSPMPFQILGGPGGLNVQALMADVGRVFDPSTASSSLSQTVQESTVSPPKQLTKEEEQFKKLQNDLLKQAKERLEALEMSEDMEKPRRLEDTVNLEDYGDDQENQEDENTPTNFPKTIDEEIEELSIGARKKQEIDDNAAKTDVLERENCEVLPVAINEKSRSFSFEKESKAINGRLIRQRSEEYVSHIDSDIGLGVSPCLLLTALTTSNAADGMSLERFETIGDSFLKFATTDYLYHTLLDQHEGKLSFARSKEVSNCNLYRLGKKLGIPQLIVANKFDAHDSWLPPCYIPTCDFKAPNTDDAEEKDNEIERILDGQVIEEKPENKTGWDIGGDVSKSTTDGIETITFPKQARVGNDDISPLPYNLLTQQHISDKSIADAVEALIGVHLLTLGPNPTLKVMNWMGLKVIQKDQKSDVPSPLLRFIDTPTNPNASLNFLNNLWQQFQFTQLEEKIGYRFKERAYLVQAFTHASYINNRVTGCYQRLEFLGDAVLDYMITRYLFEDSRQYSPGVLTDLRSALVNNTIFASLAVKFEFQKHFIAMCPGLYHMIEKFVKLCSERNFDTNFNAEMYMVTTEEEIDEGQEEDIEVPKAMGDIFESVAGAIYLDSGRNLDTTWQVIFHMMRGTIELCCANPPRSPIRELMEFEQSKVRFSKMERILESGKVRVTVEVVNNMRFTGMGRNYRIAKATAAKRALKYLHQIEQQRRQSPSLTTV
T1 sequence (G5EBF5 1-385 partner): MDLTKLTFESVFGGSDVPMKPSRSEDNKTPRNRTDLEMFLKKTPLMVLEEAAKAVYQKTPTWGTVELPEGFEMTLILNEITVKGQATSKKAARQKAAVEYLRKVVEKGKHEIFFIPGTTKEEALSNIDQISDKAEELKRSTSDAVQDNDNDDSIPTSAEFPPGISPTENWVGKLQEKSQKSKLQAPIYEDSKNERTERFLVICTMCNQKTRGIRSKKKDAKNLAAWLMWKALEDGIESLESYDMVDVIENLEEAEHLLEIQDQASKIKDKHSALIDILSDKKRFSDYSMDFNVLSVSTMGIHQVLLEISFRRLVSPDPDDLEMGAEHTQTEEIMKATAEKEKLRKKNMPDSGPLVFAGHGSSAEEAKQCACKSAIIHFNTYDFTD

[2] = biological target: T2, DCR-1 in the antiviral complex (AVC; DCR-1•DRH-1•RDE-4) (Caenorhabditis elegans, UniProt P34529); test: cryo-EM structure, […] Å; format: binding; details: helicase nucleotide pocket between Hel1 and Hel2; Mg2+; sample incubated with 5 mM ATP and 3'ovr 106-dsRNA, pH 7.5, 20 °C
T2 construct: three proteins co-expressed in Sf9 cells (baculovirus), StrepTrap and Superose 6 purified; ADP in DCR-1 helicase domain (Hel1/Hel2); with Dicer Related Helicase
T2 sequence (P34529 whole entry, the tested form may be a part): as the sequence (P34529 whole entry partner) above
T2 sequence (G5EDI8 1-1037 partner): as the sequence (G5EDI8 1-1037) above
T2 sequence (G5EBF5 1-385 partner): as the sequence (G5EBF5 1-385 partner) above

Nc1ncnc2c1ncn2[C@@H]1O[C@H](COP(=O)(O)OP(=O)(O)O)[C@@H](O)[C@H]1O [ADP]
cryo-EM structure, 3.0 Å [1]: ADP was also present in the ATP-binding pockets of both DRH-1 helicases | cryo-EM structure, 3.0 Å [2]: we modeled ADP within the conserved nucleotide-binding pocket of the DCR-1 helicase

— article doi:10.64898/2026.08.16.745104v1, “C. elegans Dicer stacks with the RIG-I-like receptor DRH-1 to cleave dsRNA” (biorxiv, 2026)
